EP4803519A1, “NOVEL PRMT5 INHIBITOR AND USE THEREOF” (Shanghai Apeiron Therapeutics Company Limited, priority 2023, dated 2025)

Legend:
Assay type in all cases: cell-based
[1] = tested on: HCT-116 MTAP(-/-)deleted cells; assay: Inhibitory activity on proliferation of HCT-116 MTAP(-/-)deleted cells (Cell-Titer Glo); conditions: Homo sapiens, 144 h, incubated 6 d, 0-1,000 nM
Description: (§1) Materials and cells: HCT-116 MTAP(-/-)deleted cells were purchased from Kyinno Biotechnology (China); RPMI-1640 medium, and fetal bovine serum were purchased from Thermo Fisher (United States); 384-well plates were purchased from PerkinElmer (United States); Cell-Titer Glo kit was purchased from Promega (United States).
Cell culture: HCT116 MTAP(-/-)deleted cells were cultured with RPMI 1640 medium containing 10% fetal bovine serum at 37°C in 5% carbon dioxide. Only cells in the logarithmic growth phase could be used for the test.
(§2) Test of inhibitory activity on cell proliferation: The Cell-Titer Glo kit was used to test the proliferation inhibitory activity of the compounds on HCT-116 MTAP(-/-)deleted cells. The cell concentration was adjusted, rendering that cells were inoculated into a 384-well plate at 40 µL per well and incubated overnight at 37°C and 5% carbon dioxide. 80 nL of the compound was added into each well to reach a final concentration of 0-1,000 nM (starting concentration 1,000 nM, 2.5-fold dilution, 10 points), and the cell plate with 0.2% DMSO content was incubated at 37°C and 5% carbon dioxide for 6 d. 40 µL of Cell-Titer Glo reagent was added to test cell viability.

[2] = tested on: HCT-116 wild-type cells; assay: Inhibitory activity on proliferation of HCT-116 wild-type cells (Cell-Titer Glo); conditions: Homo sapiens, 144 h, incubated 6 d, 0-10,000 nM
Description: as §1, with “wild-type” for “MTAP(-/-)deleted”
Cell culture: HCT-116 wild-type cells were cultured in RPMI-1640 medium containing 10% fetal bovine serum at 37°C and 5% carbon dioxide. Only cells in the logarithmic growth phase could be used for the test.
Test of cell proliferation activity: Cell-Titer Glo kit was used to test the proliferation inhibitory activity of the compound on HCT-116 wild-type cells. The cell concentration was adjusted, rendering that cells were inoculated into a 384-well plate at 40 µL per well and incubated overnight at 37°C and 5% carbon dioxide. 80 nL of the compound was added to each well to reach a final concentration of 0-10,000 nM (starting concentration 10,000 nM, 2.5-fold dilution, 10 points), and the cell plate with 0.2% DMSO content was incubated at 37°C and 5% carbon dioxide for 6 d. 40 µL of Cell-Titer Glo reagent was added to test cell viability.

[3] = tested on: LU99 MTAP(-/-)deleted cells; assay: Inhibitory activity on proliferation of LU99 MTAP(-/-)deleted cells (Cell-Titer Glo); conditions: Homo sapiens, Lu-99, 144 h, incubated 6 d, 0-1,000 nM
Description: (§3) Materials and cells: LU99 MTAP deleted cell line was purchased from Kyinno Biotechnology (China); cell culture medium and fetal bovine serum were purchased from Thermo Fisher Scientific (USA); 384-well plates were purchased from PerkinElmer (USA); Cell-Titer Glo kits were purchased from Promega (USA).
Cell culture: LU99 MTAP(-/-)deleted cells were cultured with medium containing 10% fetal bovine serum at 37°C in 5% carbon dioxide. Only cells in the logarithmic growth phase could be used for the test.
as §2, with “on LU99” for “on HCT-116”, “dioxide. 40” for “dioxide. 80”, “added to” for “added into”

[4] = tested on: LU99 MTAP overexpressing cells; assay: Inhibitory activity on proliferation of LU99 MTAP overexpressing cells (Cell-Titer Glo); conditions: Homo sapiens, Lu-99, 144 h, incubated 6 d, 0-10,000 nM
Description: as §3, with “overexpressing” for “deleted”
Cell culture: LU99 MTAP overexpressing cells were cultured with medium containing 10% fetal bovine serum at 37°C in 5% carbon dioxide. Only cells in the logarithmic growth phase could be used for the test.
Test of inhibitory activity on cell proliferation: The Cell-Titer Glo kit was used to test the proliferation inhibitory activity of the compounds on LU99 MTAP overexpressing cells. The cell concentration was adjusted, rendering that cells were inoculated into a 384-well plate at 40 µL per well and incubated overnight at 37°C and 5% carbon dioxide. 40 nL of the compound was added to each well to reach a final concentration of 0-10,000 nM (starting concentration 10,000 nM, 2.5-fold dilution, 10 points), and the cell plate with 0.2% DMSO content was incubated at 37°C and 5% carbon dioxide for 6 d. 40 µL of Cell-Titer Glo reagent was added to test cell viability.

| Compound | IC50 [1] | IC50 [2] | IC50 [3] | IC50 [4] |
| --- | --- | --- | --- | --- |
| CN(C(=O)c1ccc2nc(N)c3cnn(C)c3c2c1)[C@@H]1COC(C)(C)c2cc(C(F)(F)F)ccc21 [Example 16, (S)-4-amino-N-(1,1-dimethyl-7-(trifluoromethyl)isochroman-4-yl)-N,1-dimethyl-1H-pyrazolo[4,3-c]quinoline-8-carboxamide] | 3.7 nM | 487 nM | 4.7 nM | 682 nM |
| CN(C(=O)c1cc2c3c(c(N)nc2cn1)COC3)[C@@H]1COC(C)(C)c2cc(C(F)(F)F)ccc21 [Example 26, (S)-4-Amino-N-(1,1-dimethyl-7-(trifluoromethyl)isochroman-4-yl)-N-methyl-1,3-dihydrofuro[3,4-c][1,7]naphthyridine-8-carboxamide] | 11 nM | 2050 nM | 14.9 nM | 1310 nM |
| CN(C(=O)c1cc2c(cc1F)nc(N)c1cnn(C)c12)C1COC(C)(C)c2cc(C(F)(F)F)ccc21 (stereo not shown) [Example 15, 4-Amino-N-(1,1-dimethyl-7-(trifluoromethyl)isochroman-4-yl)-7-fluoro-N,1-dimethyl-1H-pyrazolo[4,3-c]quinoline-8-carboxamide] | 13.6 nM | 446 nM | 25.9 nM | 795 nM |
| CN(C(=O)c1ccc2nc(N)c3ccncc3c2c1)C1COC(C)(C)c2cc(C(F)(F)F)ccc21 (stereo not shown) [Example 22, 5-amino-N-(1,1-dimethyl-7-(trifluoromethyl)isochroman-4-yl)-N-methylbenzo[c][2,6]naph thyridine-9-carboxamide] | 13.4 nM | 1250 nM | 25.5 nM | 771 nM |
| CN(C(=O)c1ccc2nc(N)c3cnn(C)c3c2c1)[C@@H]1COC(C)(C)c2cc(N3CCNCC3)ccc21 [Example 83] | 103 nM | 10500 nM | 102 nM | 12700 nM |
| CC1OCc2c1c(N)nc1cnc(C(=O)N(C)C3COC(C)(C)c4cc(C(F)(F)F)ccc43)cc21 (stereo not shown) [Example 18, 4-Amino-N-(1,1-dimethyl-7-(trifluoromethyl)isochroman-4-yl)-N,3-dimethyl-1,3-dihydrofuro[3,4-c][1,7]naphthyridine-8-carboxamide] | 38.4 nM | 3080 nM | 62.9 nM | 3970 nM |
| CN(C(=O)c1ccc2nc(N)c3cnn(C)c3c2c1)[C@@H]1COC(C)(C)c2cc(N3CCOCC3)ccc21 [Example 33, (S)-4-amino-N-(1,1-dimethyl-7-morpholinoisochroman-4-yl)-N,1-dimethyl-1H-pyrazolo[4,3-c]quinoline-8-carboxamide] | 5.3 nM | 1340 nM | 8.6 nM | 2260 nM |

Further lines, with some results ahead:

| IC50 [1] | IC50 [2] | Compound | IC50 [3] | IC50 [4] |
| --- | --- | --- | --- | --- |
| 8.1 nM | 1470 nM | CN(C(=O)c1cc2c(cc1C(F)(F)F)nc(N)c1cnn(C)c12)[C@@H]1COC(C)(C)c2cc(C(F)(F)F)ccc21 [Example 38, N-[(4S)-1,1-dimethyl-7-(trifluoromethyl)isochroman-4-yl] [4-amino-1-methyl-7-(trifluoromethyl)pyrazolo[4,5-c]quinolin-8-yl]-N-methylformamide] | 15 nM | 2050 nM |
| 7.9 nM | 837 nM | CN(C(=O)c1cc2c3c(c(N)nc2cn1)COC3)[C@@H]1COC2(CCC2)c2cc(C(F)(F)F)ccc21 [Example 44, (S)-4-amino-N-methyl-N-(7'-(trifluoromethyl)spiro[cyclobutane-1,1'-isochroman]-4'-yl)-1,3-dihydrofuro[3,4-c][1,7]naphthyridine-8-carboxamide] | 12.2 nM | 673 nM |
| 15 nM | 2100 nM | Cc1nn(C)c2c1c(N)nc1ccc(C(=O)N(C)[C@@H]3COC(C)(C)c4cc(C(F)(F)F)ccc43)cc12 [Example 35, (S)-4-amino-N-(1,1-dimethyl-7-(trifluoromethyl)isochroman-4-yl)-N,1,3-trimethyl-1H-pyrazolo[4,3-c]quinoline-8-carboxamide] | 24.2 nM | 858 nM |
